Results as given in US8664276B2, “Stilbene analogs and methods of treating cancer” (University of Kentucky Research Foundation, priority 2011, dated 2014).

Legend:
[1] = target: T1, MAT2A-K265L (Homo sapiens, UniProt P31153, K265L); experiment: In vitro binding assay, mutant MAT2A (K265L); conditions: lysine 265 mutated to leucine
T1 construct: made in house
From the text: To test if the halogenated stilbene analogs of the present disclosure also bind MAT1A, a His-tagged MAT1A was cloned in and purified from E. coli. […] According to published MAT structures, several key residues are involved in substrate binding and catalysis. Among these key residues, lysine 265 is conserved between MAT1A and MAT2A and among different species. […] Taken together, the FlDAS reagents are specific inhibitors of MAT2A, and are promising drug candidates for multiple cancers as well as metabolic diseases.

[2] = target: T2, MAT2B (Homo sapiens, UniProt Q9NZL9); experiment: Streptavidin bead pull-down binding assay, GST-MAT2B; conditions: recombinant protein from E. coli
T2 construct: made in house; host or cells: E. coli BL21
T2 sequence (Q9NZL9 1-334): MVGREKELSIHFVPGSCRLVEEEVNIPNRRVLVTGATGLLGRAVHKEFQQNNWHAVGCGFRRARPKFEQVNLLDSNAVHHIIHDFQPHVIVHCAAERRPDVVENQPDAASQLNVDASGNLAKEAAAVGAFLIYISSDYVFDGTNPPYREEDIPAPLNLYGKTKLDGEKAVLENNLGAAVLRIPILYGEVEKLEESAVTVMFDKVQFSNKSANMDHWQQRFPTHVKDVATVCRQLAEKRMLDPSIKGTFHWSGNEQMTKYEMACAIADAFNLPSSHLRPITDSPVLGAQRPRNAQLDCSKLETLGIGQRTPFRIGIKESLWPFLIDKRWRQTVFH
Protocol: (§1) MAT2A and MAT2B were cloned into pGEX6p3 vector. The constructs were transfected into E. coli BL21. The GST-fusion proteins were induced by IPTG and purified by glutathione beads as described previously (See Liu, beta-Trcp couples beta-catenin phosphorylation-degradation and regulates Xenopus axis formation. Proc Natl Acad Sci USA 1999, 96, 6273-8). For the binding assay, purified proteins were incubated with streptavidin beads and biotinylated FlDAS 13 described above. Eluted proteins were analyzed by western blot with antibodies against GST, MAT2A or MAT2B.
(§2) Since MAT2A and MAT2B bind each other and form a complex, to determine which subunit directly interacts with FIDAS reagents, recombinant MAT2A and MAT2B were purified and tested for interaction with FIDAS. Briefly, GST-MAT2A and GST-MAT2B fusion proteins were expressed and purified from E. coli. These proteins were incubated with streptavidin beads with or without biotinylated derivative 13 (FIG. 9A). The binding proteins were eluted by 2.5 mM D-biotin and analyzed by Western blot with an anti-GST-Ab.

[3] = target: MAT2A (Homo sapiens, UniProt P31153); experiment: Streptavidin bead pull-down binding assay, GST-MAT2A; set-up: GST (N); made in house; conditions: recombinant protein from E. coli
Protocol: as §1, §2

MAT2A, sequence (P31153 whole entry): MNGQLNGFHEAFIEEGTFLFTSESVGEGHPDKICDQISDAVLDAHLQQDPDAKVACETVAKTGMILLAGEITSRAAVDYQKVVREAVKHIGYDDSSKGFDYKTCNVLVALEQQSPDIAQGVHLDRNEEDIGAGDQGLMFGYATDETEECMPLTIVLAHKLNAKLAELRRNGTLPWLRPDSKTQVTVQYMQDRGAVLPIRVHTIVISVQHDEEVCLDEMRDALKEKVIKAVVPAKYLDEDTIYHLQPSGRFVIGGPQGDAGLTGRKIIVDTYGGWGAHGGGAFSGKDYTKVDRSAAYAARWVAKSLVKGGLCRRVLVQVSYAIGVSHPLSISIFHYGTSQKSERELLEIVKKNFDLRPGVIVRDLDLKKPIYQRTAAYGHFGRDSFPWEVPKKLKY
T1 sequence (P31153 whole entry K265L): as the sequence (P31153 whole entry) above, with K265L counted along it

binding to mutant MAT2A (K265L) [1]: significantly decreased
binding to MAT2B [2]: indirectly through MAT2A
binding to MAT2A [3]: directly binds
Structure (SMILES): CN(CC(=O)NCCOCCOCCNC(=O)CCCCC1SCC2NC(=O)NC21)c1ccc(C=Cc2c(F)cccc2F)cc1 (stereo not drawn) [compound 13, N-(2-(4-(2,6-Difluorostyryl)phenyl)-4-oxo-8,11-dioxa-2,5-diazamidecan-13-yl)-5-(2-oxohexahydro-1H-thieno[3,4-d]imidazol-4-yl)pentanamide]
